The subject of one data set is Reserpin ptosis. Briefly: Reserpin ptosis antagonism on mice. The data set is classed as in vivo. Particulars: for ED50: Mus musculus, sc, 1 h, compound given 60 min after reserpine 6 mg./kg. s.c. The method, then: The average ptosis is calculated on the basis of all measurements in each group and expressed as the percentage of the deviation (ptosis) from the control group. Groups consisting of 10 mice are used for each does. The animals are treated with a 6 mg./kg. s.c. dose of reserpine, the test compound is administered after 60 minutes. The control animals receive a vehicle. The animals with closed eye-lids are counted in each group after 60 and 120 minutes. The evaluation is carried out as disclosed in the ptosis test No. 3.

The next data set has as its system Tetrabenazine ptosis. Briefly: Tetrabenazine antagonism on mice (ptosis). Type of data set: in vivo. Particulars: for ED50: Mus musculus, oral, 30 min before Tetrabenazine 50 mg./kg. i.p. The method, then:
The test is carried out by the method of Hoffmeister et al. adapted to mice. For each does groups of 10 animals are used. The mice of the test groups are treated orally with the test compound while the controld animals receive the corresponding vehicle p.o. After 30 minutes a 50 mg./kg. i.p. dose of Tetrabenazine is administered. The animals with closed eye-lids are counted after 30, 60, 90 and 120 minutes, respectively, in each group. The average ptosis is calculated on the basis of all measurements in each group and expressed as the percentage of the deviation (ptosis) from the control group.

The nature of another data set: Acute toxicity on mice. Particulars: mouse, in vivo, po. The method, then:
White mice belonging to the CFLP strain (body weight 18-22 g; both male and female) are used, 10 animals for each dose. The test compound is administered orally in a volumen of 20 ml/kg. After treatment the animals are observed for a period of 7 days. The animals are kept in a plastic cage, at room temperature. The animals get tap water and standard mouse fodder ad libitum.

The next data set concerns writhing (acetic acid). Kind of data set: Analgesic effect, acetic acid writhing test on mice. The data set is classed as in vivo. The following applies: for ED50: Mus musculus, oral, 60 min pre-treatment, 0.75% acetic acid i.p.; for Therapeutical index (writhing test): mouse, in vivo, po. The method, then:
Method: acetic acid "writhing effect" on mice
To mice weighing 20-25 g. a 0.75% acetic acid solution is administered intraperitoneally in a volume of 20 ml./kg. According to the method of Neubold the characteristic writhing reactions are counted for each animal between the 5th and 10th minute and the total writhing number obtained for this 5 minutes' period is expressed as the percentage of the control group. The test compound is administered orally, the test is carried out by using a pre-treatment period of 60 minutes and 10 animals are used for each dose.
In general terms: In writhing tests, fewer writhes than in controls are read as antinociception.

The test system of another data set is Hexobarbital narcosis. Briefly: Hexobarbital narcosis on mice. Type of data set: in vivo. Particulars: po; for ED50: Mus musculus, read-out: Hexobarbital narcosis ED50; for Therapeutical index (Hexobarbital narcosis): mouse, in vivo. The method, then: Groups consisting of 6 mice are used for each dose. The animals are treated orally with the test compound (the control group receives a vehicle), whereby sleeping is induced 1 hour later by administering a 40 mg./kg. i.v. dose of Hexobarbital both to the test and control groups.
Animals which have a sleeping time more than 2.5 times longer than that of the control group are considered to show a positive reaction. ED50 values are calculated from the thus-transofrmed data.

Data set [1] relates to gastrointestinal peristalsis. Briefly: Antiperistaltic effect on mice (gastrointestinal peristalsis, carbon suspension, method of Stickney et al.). The following applies: for ED50: Mus musculus, read-out: Antiperistaltic effect ED50; for Therapeutical index (antiperistaltic effect): mouse, in vivo. Type of data set: in vivo, mice (white, male and female). The method, then: The […] effect is tested according to the method of […] et al. on white male and female mice weighing 20-25 g. […] The groups consist of 10 mice for each dose. The animals of the control group are treated at the same time under identical conditions with a vehicle. Twenty minutes after the administration of the carbon suspension the mice are sacrificed. The total length of the intestines and that of the intestines filled with carbon is measured.

Where [2] appears, read: 7 days observation, Litchfield-Wilcoxon.
The mark [3] stands for this setting: 60 min before 10% carbon suspension.

Each structure is given as a SMILES string. Where two headings read alike, the source gives them in different places. Some results are limits rather than exact numbers.

A word on the ED50: it is the dose at which the effect has come halfway, by size or by number of responders. With `CN(C)CCC=C1c2ccccc2CCc2ccccc21` [Amitriptylin, reference compound], in the data set with Reserpin ptosis, it took a dose of 65 mg/kg to reach the 50% effect level (ED50) and the “Therapeutical index TI (Reserpin ptosis antagonism)” value was determined as 3.5. Further, in the data set with Tetrabenazine ptosis, it took a dose of 12 mg/kg to reach the 50% effect level (ED50) and the “Therapeutical index TI (Tetrabenazine ptosis antagonism)” value was determined as 18.7.

The term LD50 denotes the dose expected to kill half of the subjects tested. Higher therefore signals lower toxicity. The compound `CC1=N[n+]2ccc3ccccc3c2NC1(C)O` (stereo not shown) [Example 1, 2,3-Dimethyl-2-hydroxy-1,2-dihydro-as-triazino[3,2-a]isoquinolinium ethanesulfonate] returned an LD50 at 168 h in “Acute toxicity on mice” of 440 mg/kg. In the data set on writhing (acetic acid), the median effective dose (ED50) turned out to be 60 mg/kg and the “Therapeutical index (writhing test)” value is 7.3.

The compound `c1ccc2c(c1)cc[n+]1ncc(N3CCOCC3)nc21` [Example 2, 2-Morpholino-as-triazino[3,2-a]isoquinolinium ethanesulfonate] displayed a 50% lethal dose (LD50) at 168 h in the data set “Acute toxicity on mice” (setting [2]) of 450 mg/kg.

In “Acute toxicity on mice”, `OCCNc1cn[n+]2ccc3ccccc3c2n1` [Example 3, 2-(2-Hydroxyethylamino)-as-triazino[3,2-a]isoquinolinium ethanesulfonate] gave an LD50 at 168 h of 500 mg/kg. Also, in the data set with Tetrabenazine ptosis, the ED50 was 50 mg/kg and the “Therapeutical index TI (Tetrabenazine ptosis antagonism)” value is reported as 10.0.

In turn, `Cc1n[n+]2ccc3ccccc3c2nc1NCCCN(C)C` [Example 5, 2-(3-Dimethylaminopropylamino)-3-methyl-as-triazino[3,2-a]isoquinolinium ethanesulfonate] registered an LD50 at 168 h in “Acute toxicity on mice” (setting [2]) of 2000 mg/kg.

The compound `CN(C)CCCNc1nc2c3ccccc3cc[n+]2nc1-c1ccccc1` [Example 6, 2-(3-Dimethylaminopropylamino)-3-phenyl-as-triazino[3,2-a]isoquinolinium ethanesulfonate] showed a 50% lethal dose (LD50) at 168 h in “Acute toxicity on mice” of 850 mg/kg. In addition, in the data set on Hexobarbital narcosis, the 50% effective dose (ED50) was 35 mg/kg and the “Therapeutical index (Hexobarbital narcosis)” value came to 24.3. In addition, in the data set with writhing (acetic acid), the ED50 is 120 mg/kg and the “Therapeutical index (writhing test)” value is given as 7.1.

On to `c1ccc(CNc2nc3c4ccccc4cc[n+]3nc2-c2ccccc2)cc1` [Example 8, 2-Benzylamino-3-phenyl-as-triazino[3,2-a]isoquinolinium ethanesulfonate], for which the LD50 at 168 h in “Acute toxicity on mice” came out at 340 mg/kg. Moreover, in the data set on Reserpin ptosis, the median effective dose (ED50) turned out to be 31 mg/kg and the “Therapeutical index TI (Reserpin ptosis antagonism)” value was 11.0.

`Cc1n[n+]2ccc3ccccc3c2[nH]c1=O` [Example 9, 3-Methyl-2(1H)-oxo-as-triazino[3,2-a]isoquinolinium-5-ium-ethanesulfonate]: the LD50 at 168 h in the data set “Acute toxicity on mice” came to 900 mg/kg. For the same compound, in the data set on Hexobarbital narcosis, the ED50 was determined as 56 mg/kg and the “Therapeutical index (Hexobarbital narcosis)” value stood at 16.1. Further, in the data set with writhing (acetic acid), the ED50 is 107 mg/kg and the “Therapeutical index (writhing test)” value came out at 8.4.

On to `O=c1nc2c3ccccc3ccn2nc1-c1ccccc1` [Example 11, 3-Phenyl-as-triazino[3,2-a]isoquinoline-2(5H)-one], for which, in data set [1] (setting [3]), the ED50 was about 220 mg/kg. The “Therapeutical index (antiperistaltic effect)” value in data set [1] turned out to be 9.1. Also, the 50% lethal dose (LD50) at 168 h in “Acute toxicity on mice” was determined as 2000 mg/kg. Also, in the data set with Reserpin ptosis, the 50% effect level (ED50) was put at a dose of 33 mg/kg and the “Therapeutical index TI (Reserpin ptosis antagonism)” value was found to be 60.6.

In turn, `OC1C=N[n+]2ccc3ccccc3c2N1` (stereo not shown) [Example 16, 2-Hydroxy-1,2-dihydro-as-triazino[3,2-a]isoquinolinium ethanesulfonate] displayed an LD50 at 168 h in the data set “Acute toxicity on mice” (setting [2]) of 650 mg/kg.

Regarding `Cc1n[n+]2c3ccccc3ccc2n(C)c1=O` [Example 17, 2,4-Dimethyl-3(4H)-oxo-as-triazino[3,2-a]isoquinoline-11-ium ethanesulfonate], the LD50 at 168 h in “Acute toxicity on mice” worked out at 1000 mg/kg. Moreover, in the data set with Reserpin ptosis, the median effective dose (ED50) amounted to 40 mg/kg and the “Therapeutical index TI (Reserpin ptosis antagonism)” value came out at 25.0.

In the data set “Acute toxicity on mice”, `Cn1c(=O)c(-c2ccccc2)n[n+]2c3ccccc3ccc12` [Example 18, 2-Phenyl-4-methyl-3(4H)-oxo-as-triazino[3,2-a]quinoline-11-ium ethanesulfonate] had an LD50 at 168 h of 2000 mg/kg. Besides, in the data set with Reserpin ptosis, it took a dose of 40 mg/kg to reach the 50% effect level (ED50) and the “Therapeutical index TI (Reserpin ptosis antagonism)” value was 50.0.

Turning to `Cc1n[n+]2c(ccc3ccccc32)[nH]c1=O` [Example 21, 2-Methyl-3(4H)-oxo-as-triazino[3,2-a]quinoline-11-ium ethanesulfonate], in the data set “Acute toxicity on mice” (setting [2]), the 50% lethal dose (LD50) at 168 h worked out at 700 mg/kg.

With `Cc1n[n+]2c(ccc3ccccc32)nc1NCCO` [Example 24, 2-Methyl-3(2-hydroxyethylamino)as-triazino[3,2-a]quinolinium ethanesulfonate], the LD50 at 168 h in “Acute toxicity on mice” (setting [2]) was 130 mg/kg.

Turning to `OCCNc1nc2ccc3ccccc3[n+]2nc1-c1ccccc1` [Example 25, 3-(2-Hydroxyethylamino)-2-phenyl-as-triazino[3,2-a]quinolinium ethanesulfonate], the LD50 at 168 h in “Acute toxicity on mice” (setting [2]) is 500 mg/kg.

`O=c1cn[n+]2c(ccc3ccccc32)[nH]1` [Example 26, 3(4H)-Oxo-as-triazino[3,2-a]quinoline-11ium ethanesulfonate] showed a median lethal dose (LD50) at 168 h in “Acute toxicity on mice” (setting [2]) of 450 mg/kg.

In the case of `O=c1[nH]c2ccc3ccccc3[n+]2nc1-c1ccccc1` [Example 27, 2-Phenyl-3(4H)-oxo-as-triazino[3,2-a]quinoline-11ium ethanesulfonate], in the data set with writhing (acetic acid), the 50% effective dose (ED50) was 23.8 mg/kg and the “Therapeutical index (writhing test)” value amounted to 42.0.

In the data set “Acute toxicity on mice” (setting [2]), `Cc1n[n+]2ccc3ccccc3c2nc1N1CCOCC1` [Example 34, 2-Morpholino-3-methyl-as-triazino[3,2-a]isoquinolinium ethanesulfonate] showed an LD50 at 168 h of 1200 mg/kg.

`Cc1n[n+]2ccc3ccccc3c2nc1NCCO` [Example 36, 2-(2-Hydroxyethylamino)-3-methyl-as-triazino[3,2-a]isoquinolinium ethanesulfonate] returned a 50% lethal dose (LD50) at 168 h in the data set “Acute toxicity on mice” of 1400 mg/kg. In the data set on Tetrabenazine ptosis, the median effective dose (ED50) is 20 mg/kg and the “Therapeutical index TI (Tetrabenazine ptosis antagonism)” value worked out at 70.0.

As for `OCCNc1nc2c3ccccc3cc[n+]2nc1-c1ccccc1` [Example 37, 2-(2-Hydroxyethylamino)-3-phenyl-as-triazino[3,2-a]isoquinolinium ethanesulfonate], the LD50 at 168 h in “Acute toxicity on mice” (setting [2]) was 750 mg/kg.

As to `Cc1n[n+]2ccc3ccccc3c2nc1N` [Example 38, 2-Amino-3-methyl-as-triazino[3,2-a]isoquinolinium ethanesulfonate], the LD50 at 168 h in “Acute toxicity on mice” was 380 mg/kg. Moreover, in the data set with Tetrabenazine ptosis, the median effective dose (ED50) was 9.2 mg/kg and the “Therapeutical index TI (Tetrabenazine ptosis antagonism)” value came to 41.3. In the data set with Hexobarbital narcosis, the 50% effective dose (ED50) turned out to be 17 mg/kg and the “Therapeutical index (Hexobarbital narcosis)” value is 22.4. Further, in the data set on writhing (acetic acid), the median effective dose (ED50) is 65 mg/kg and the “Therapeutical index (writhing test)” value is 5.8.

`Nc1nc2c3ccccc3cc[n+]2nc1-c1ccccc1` [Example 39, 2-Amino-3-phenyl-as-triazino[3,2-a]isoquinolinium ethanesulfonate] yielded a 50% lethal dose (LD50) at 168 h in “Acute toxicity on mice” (setting [2]) of 500 mg/kg.

Consider `Cc1n[n+]2ccc3ccccc3c2nc1NCc1ccccc1` [Example 40, 2-Benzylamino-3-methyl-as-triazino[3,2-a]isoquinolinium ethanesulfonate], for which the ED50 in data set [1] (setting [3]) was 6.5 mg/kg. Also, the “Therapeutical index (antiperistaltic effect)” value in data set [1] is given as 13.85. The same compound had a 50% lethal dose (LD50) at 168 h in the data set “Acute toxicity on mice” of 90 mg/kg.

Turning to `CCCC(C)(COC(N)=O)COC(N)=O` [Meprobamate, reference compound], in the data set on Hexobarbital narcosis, the ED50 stood at 260 mg/kg and the “Therapeutical index (Hexobarbital narcosis)” value came out at 4.2.

Regarding `COc1ccc(Cc2nccc3cc(OC)c(OC)cc23)cc1OC` [Papaverin, reference compound], the median effective dose (ED50) in data set [1] was over 280 mg/kg. Also, the “inhibition (antiperistaltic effect)” value in data set [1] (printed beside ED50 above 280 mg./kg.) was 36.1%.

Consider `CC(=O)Nc1ccc(O)cc1` [Paracetamol, reference compound], for which the ED50 with writhing (acetic acid) worked out at 180 mg/kg.

The values are drawn from patent publication US4994448A, “Condensed quinolinium and isoquinolinium derivatives” (Egis Gyogyszergyar, priority 1987, dated 1991).
